Test [1] relates to SaGluCl1 (short form “SC”) glutamate-gated chloride channel. Kind of test: Two microelectrode voltage clamp of Xenopus oocytes expressing SaGluCl1. Type of test: cell-based, Schistocerca americana. The conditions noted are these: for current elicited on application of the compound: Xenopus oocyte, SaGluCl1 short form SC, membrane potential held at 0 mV (FIG. 3); for activation of the channel (chloride current): short form of SaGluCl1 in Xenopus laevis oocytes. From the text:
The measurement is made with the two microelectrode voltage clamp technique and the membrane potential was held at 0 mV. Two current recordings are superimposed. The bars at top show the duration of application of glutamate and ivermectin phosphate.
Full length cDNA clones corresponding to the selected RT-PCR sequences were used as template for synthesis of in vitro transcribed RNA (Ambion Inc.). The full-length cDNA encoding SaGluCl1 in a Bluescript plasmid is linearized and capped cRNA transcripts are synthesized using appropriate oligonucleotide primers and the mMESSAGE mMACHINE in vitro RNA transcription kit from Ambion. Xenopus laevis oocytes were prepared and injected using standard methods as described (Arena et al., 1991, Mol. Pharmacol. 40: 368–374; Arena et al, 1992, Mol. Brain Res. 15: 339–348). Adult female Xenopus laevis were anesthetized with 0.17% tricaine methanesulfonate and the ovaries were surgically removed and placed in a dish consisting of (mM): NaCl 82.5, KCl 2, MgCl2 1, CaCl2 1.8, HEPES 5, adjusted to pH 7.5 with NaOH(OR-2). Ovarian lobes were broken open, rinsed several times, and gently shaken in OR-2 containing 0.2% collagenase (Sigma, Type 1A) for 2–5 hours. When approximately 50% of the follicular layers were removed, Stage V and VI oocytes were selected and placed in media consisting of (mM): NaCl 86, KCl 2, MgCl2 1, CaCl2 1.8, HEPES 5, Na pyruvate 2.5, theophylline 0.5, gentamicin 0.1 adjusted to pH 7.5 with NaOH (ND-96) for 24–48 hours before injection. For most experiments, oocytes were injected with 10 ng of cRNA in 50 nl of RNase free water. Control oocytes were injected with 50 nl of water. Oocytes were incubated for 1–5 days in ND-96 supplemented with […] gentamycin, 2.5 mM Na pyruvate and 0.5 mM theophylline before recording. Incubations and collagenase digestion were carried out at 18° C.
Voltage-clamp studies were conducted with the two microelectrode voltage clamp technique using a Dagan CA1 amplifier (Dagan Instruments, Minneapolis, Minn.). The current passing microelectrodes were filled with 0.7 M KCl plus 1.7 M K3-citrate and the voltage recording microelectrodes were filled with 1.0 M KCl. The extracellular solution for most experiments was saline consisting of (mM): NaCl 96, BaCl2 3.5, MgCl2 0.5, CaCl2 0.1, HEPES 5, adjusted to pH 7.5 with NaOH. The extracellular chloride concentration was reduced in some experiments by equimolar replacement of NaCl with the sodium salt of the indicated anion. Experiments were conducted at 21–24° C. Data were acquired using the program Pulse and most analysis was performed with the companion program Pulsefit (Instrutech Instruments, Great Neck, N.Y.) or with Igor Pro (Wavemetrics, Lake Oswego, Oreg.). Data were filtered (fc, −3 db) at 1 kHz, unless otherwise indicated. […] The measurement was made as described in this Example with the two microelectrode voltage clamp technique and the membrane potential was held at 0 mV. Two current recordings are superimposed. The bars at top show the duration of application of glutamate and ivermectin phosphate.

Test [2] deals with SaGluCl1 (short form “SC”) expressed in CHO cells. Kind of test: Current measurement in CHO cells expressing SaGluCl1. It counts as cell-based, Schistocerca americana. As for the experimental part: FIG. 4A and FIG. 4B show the SaGluCl1 (short form “SC”) expressed in CHO cells assembles into a homomultimer and is activated by ivermectin (FIG. 4A) and nodulasporic acid (FIG. 4B). 100 nM ivermectin and 1 μM nodulasporic acid were added at 20 seconds and current was measured.
PTet-Splice subclones of SaGluCl1 and SaGluCl2 as disclosed in Example section 1 were transfected into CHO Tet-Off cells (Clontech labs, Inc.) using the Lipofectamine Plus reagent (Life Technologies Inc.). Stable cell lines are selected by growth in the presence of G418. Single G418 resistant clones are isolated and shown to contain the intact SaGluCl gene. Clones containing the SaGluCl cDNAs may be analyzed for expression using immunological techniques, such as immuneprecipitation, Western blot, and immunofluorescence using antibodies specific to the SaGluCl proteins. Antibody may obtained from rabbits innoculated with peptides that are synthesized from the amino acid sequence predicted from the SaGluCl sequences. Expression is also analyzed using patch clamp electrophysiological techniques, an anion flux assay, and ^3H-ivermectin and ^3H-glutamate binding assays.
The expression of recombinant SaGluCl1 and/or SaGluCl2 is achieved by transfection of the full-length SaGluCl cDNA into a mammalian host cell described herein.

For `N[C@@H](CCC(=O)O)C(=O)O` [glutamate, L-glutamate], in test [1], the “current elicited on application of the compound” value is reported as “elicited a rapidly desensitizing current” and the “activation of the channel (chloride current)” value (shortened to “activation of the channel”) is on record as “robust L-glutamate-gated chloride current”.
For the compound `CC[C@H](C)[C@H]1O[C@]2(CC[C@@H]1C)C[C@@H]1C[C@@H](C/C=C(\C)[C@@H](O[C@H]3C[C@H](OC)[C@@H](O[C@H]4C[C@H](OC)[C@@H](O)[C@H](C)O4)[C@H](C)O3)[C@@H](C)/C=C/C=C3\CO[C@@H]4[C@H](O)C(C)=C[C@@H](C(=O)O1)[C@]34O)O2` [ivermectin, 22,23-dihydro-avermectin B1a], in test [1], the “activation of the channel” value was “activated”. For the same compound, the “activation of homomultimer channel, current measured” value in test [2] (100 nM added at 20 seconds (FIG. 4A)) was “activated”.
For ivermectin phosphate, the “current elicited on application of the compound” value in test [1] is reported as “elicited a current of similar amplitude, but the channel stayed open much longer”.
In the case of nodulasporic acid, the “activation of the channel” value in test [1] is listed as “activated”. Besides, the “activation of homomultimer channel, current measured” value in test [2] (1 μM added at 20 seconds (FIG. 4B)) is “activated”.

The values above are taken from patent publication US7033789B1, “DNA molecules encoding L-glutamate-gated chloride channels from Schistocerca americana” (Merck & Co., Inc., priority 1999, dated 2006).
